SMILES strings stand for the structures.

For this assay, the target named is T1, NLRP3 (Homo sapiens, UniProt Q96P20).
T1 construct: host or cells: THP-1 cells differentiated with PMA
T1 sequence (Q96P20 whole entry): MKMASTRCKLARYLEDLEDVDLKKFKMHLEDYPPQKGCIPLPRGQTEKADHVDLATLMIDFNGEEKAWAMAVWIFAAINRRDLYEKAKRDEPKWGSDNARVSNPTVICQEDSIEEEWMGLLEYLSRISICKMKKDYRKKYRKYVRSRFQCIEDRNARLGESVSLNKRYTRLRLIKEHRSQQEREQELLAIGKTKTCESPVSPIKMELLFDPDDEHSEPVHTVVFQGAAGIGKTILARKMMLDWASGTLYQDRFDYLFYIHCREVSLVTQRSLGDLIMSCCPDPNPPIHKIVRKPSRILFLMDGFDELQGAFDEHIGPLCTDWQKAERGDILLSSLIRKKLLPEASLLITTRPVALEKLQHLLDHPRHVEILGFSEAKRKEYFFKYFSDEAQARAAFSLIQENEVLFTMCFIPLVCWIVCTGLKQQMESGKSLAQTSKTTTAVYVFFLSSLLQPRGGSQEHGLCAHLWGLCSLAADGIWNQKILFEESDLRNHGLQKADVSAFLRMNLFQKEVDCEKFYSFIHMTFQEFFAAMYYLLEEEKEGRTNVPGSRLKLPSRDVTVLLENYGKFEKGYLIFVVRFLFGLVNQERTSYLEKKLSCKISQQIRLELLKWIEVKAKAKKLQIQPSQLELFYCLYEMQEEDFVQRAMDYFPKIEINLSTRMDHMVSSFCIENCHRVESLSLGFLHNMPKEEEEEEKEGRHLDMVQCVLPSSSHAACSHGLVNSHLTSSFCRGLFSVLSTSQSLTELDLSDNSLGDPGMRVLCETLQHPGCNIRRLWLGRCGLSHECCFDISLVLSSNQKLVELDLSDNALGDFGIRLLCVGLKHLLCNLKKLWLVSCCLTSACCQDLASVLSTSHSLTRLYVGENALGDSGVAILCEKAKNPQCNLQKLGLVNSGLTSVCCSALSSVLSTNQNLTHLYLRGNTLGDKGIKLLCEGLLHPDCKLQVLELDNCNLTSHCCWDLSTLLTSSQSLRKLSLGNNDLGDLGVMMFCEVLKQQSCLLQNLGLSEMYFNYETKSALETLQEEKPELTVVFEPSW
As to the kind of experiment: IL-1β Secretion Assay (NLRP3-dependent IL1β secretion in THP1 cells). As to conditions: PMA-differentiated THP-1 cells; compounds incubated 20 h; 2.5 μM Nigericin 3 h; HTRF IL-1β readout; read-out: IC50 IL-1β Inhibition. The assay is classed as cell-based. As for the experimental part: Monocytic THP-1 cells (ATCC: TIB-202) were maintained in growth media consisting of RPMI 1640 medium (ThermoFisher, Cat #11875-085), 10% FBS (ThermoFisher) and 0.05 mM β-mercaptoethanol (ThermoFisher, Cat #21985-023), according to the provider's instructions. The cell concentration was adjusted to 7.5×10^5 cells/mL, and plated in complete growth media with a final concentration of 100 ng/mL phorbol 12-myristate 13-acetate (PMA, Sigma #P8139). Cells were seeded at 100 µL/well into a 96-well cell culture plate (ThermoFisher Cat #165305) and allowed to differentiate for 24 h in a cell culture incubator at 37° C. with 5% CO2. Cells were washed 1× with 100 ul PBS and replaced with fresh RPMI+5% FBS. Compounds were serial diluted in DMSO with 3 fold dilution for a total of 7 concentrations. Diluted compounds were added to the cells at a ratio of 1:200 and incubated for 20 h. The NLRP3 inflammasome was activated with the addition of 2.5 μM Nigericin (Sigma: Cat #SML1779-1 ml), for 3 h. After incubation, 15 μL of conditioned media was removed and assayed for levels of IL-1β using the HTRF IL-1β assay kit (Cisbio: Cat #62HIL1BPEH) as per the manufacturer's instructions.
Compounds, once produced and prepared according to the present invention, can be assessed in variety of assays to characterize their activities. For example, NLRP3-dependent IL1β secretion was evaluated in THP1 cells. IC50 values of IL1β inhibition were calculated from the plot of percentage of inhibition versus the inhibitor concentration by a logistics fit. TABLE I depict examples of compounds according to generic Formula I. Data which is <1 nM is listed as *****; data 1-10 nM is listed as ****; data 10-100 nM is listed as ***, data 100-300 nM is listed as **, data ≥300 nM is listed as *.
Regarding `Cc1ccc(-c2nnc(N[C@@H]3CCCN(CCO)C3)n3cncc23)c(OC(F)F)c1` [Compound 184, 2-[(3R)-3-({1-[2-(difluoromethoxy)-4-methylphenyl]imidazo[1,5-d][1,2,4]triazin-4-yl}amino)piperidin-1-yl]ethan-1-ol], the IC50 (commonly the point on the concentration scale where inhibition reaches its midpoint) fell in the range of 1 to 10 nM. Regarding `COc1cc(F)c(-c2nnc(N[C@@H]3CCCN(C)C3)n3cccc23)c(C2CC2)c1` [Compound 75, 1-(2-cyclopropyl-6-fluoro-4-methoxyphenyl)-N-[(3R)-1-methylpiperidin-3-yl]pyrrolo[1,2-d][1,2,4]triazin-4-amine], the IC50 fell in the range of 1 to 10 nM. For the molecule `OCCN1CCC[C@@H](Nc2nnc(-c3ccc(C(F)(F)F)cc3F)c3cccn23)C1` [Compound 21, 2-[(3R)-3-({1-[2-fluoro-4-(trifluoromethyl)phenyl]pyrrolo[1,2-d][1,2,4]triazin-4-yl}amino)piperidin-1-yl]ethan-1-ol], the IC50 was in the range of 10 to 100 nM. On to `CC(Nc1nnc(-c2ccc(C(F)(F)F)cc2C(F)(F)F)c2ccnn12)c1cccc(O)c1` (stereo not drawn) [Compound 395, 3-[1-({4-[2,4-bis(trifluoromethyl)phenyl]pyrazolo[1,5-d][1,2,4]triazin-7-yl}amino)ethyl]phenol], for which the half-inhibitory concentration (IC50) lay in the range of 1 to 10 nM. On to `CCN1C[C@H](F)C[C@@H](Nc2nnc(-c3ccc(Br)cc3C(F)(F)F)c3cncn23)C1` [Compound 205, 1-[4-bromo-2-(trifluoromethyl)phenyl]-N-[(3R,5R)-1-ethyl-5-fluoropiperidin-3-yl]imidazo[1,5-d][1,2,4]triazin-4-amine], for which the IC50 lay within 10 to 100 nM. In the case of `CCN1CCC[C@@H](Nc2nnc(-c3ccc(OC)cc3C3CC3)c3cc(C)nn23)C1` [Compound 379, 4-(2-cyclopropyl-4-methoxyphenyl)-N-[(3R)-1-ethylpiperidin-3-yl]-2-methylpyrazolo[1,5-d][1,2,4]triazin-7-amine] it was 1 to 10 nM; in that of `CC(Nc1nnc(-c2ccc(C(F)(F)F)cc2OC(F)(F)F)c2cncn12)c1cccc(O)c1` (stereo not drawn) [Compound 323, 3-[1-({1-[2-(trifluoromethoxy)-4-(trifluoromethyl)phenyl]imidazo[1,5-d][1,2,4]triazin-4-yl}amino)ethyl]phenol], 1 to 10 nM. Regarding `COc1ccc(-c2nnc(N[C@@H]3CCCN(C)C3)n3ccc(F)c23)c(OC(F)(F)F)c1` [Compound 39, 8-fluoro-1-[4-methoxy-2-(trifluoromethoxy)phenyl]-N-[(3R)-1-methylpiperidin-3-yl]pyrrolo[1,2-d][1,2,4]triazin-4-amine], the IC50 was 1 to 10 nM. Turning to `Cc1ccc(-c2nnc(N[C@@H]3CCCN(C)C3)n3nc(C)cc23)c(C(F)F)c1` [Compound 364, 4-[2-(difluoromethyl)-4-methylphenyl]-2-methyl-N-[(3R)-1-methylpiperidin-3-yl]pyrazolo[1,5-d][1,2,4]triazin-7-amine], the half-maximal inhibitory concentration (IC50) lay within 10 to 100 nM.

Take `CCN1CCC[C@@H](Nc2nnc(-c3ccc(OC(F)F)cc3OC(F)(F)F)c3cccn23)C1` [Compound 85, 1-[4-(difluoromethoxy)-2-(trifluoromethoxy)phenyl]-N-[(3R)-1-ethylpiperidin-3-yl]pyrrolo[1,2-d][1,2,4]triazin-4-amine]: the IC50 is less than 1 nM. Regarding `CN1C[C@H](F)C[C@@H](Nc2nnc(-c3ccc(OC(F)F)cc3OC(F)(F)F)c3cccn23)C1` [Compound 87, 1-[4-(difluoromethoxy)-2-(trifluoromethoxy)phenyl]-N-[(3R,5R)-5-fluoro-1-methylpiperidin-3-yl]pyrrolo[1,2-d][1,2,4]triazin-4-amine], the IC50 lay in the range of 1 to 10 nM. Take `C[C@H](O)CNc1nnc(-c2ccc(C(F)(F)F)cc2OC(F)F)c2c(F)ccn12` [Compound 16, (2S)-1-({1-[2-(difluoromethoxy)-4-(trifluoromethyl)phenyl]-8-fluoropyrrolo[1,2-d][1,2,4]triazin-4-yl}amino)propan-2-ol]: the IC50 is 10 to 100 nM.

In the case of `COc1ccc(-c2nnc(Nc3cc[nH]n3)n3ccc(F)c23)c(C(F)(F)F)c1` [Compound 117, 8-fluoro-1-[4-methoxy-2-(trifluoromethyl)phenyl]-N-(1H-pyrazol-3-yl)pyrrolo[1,2-d][1,2,4]triazin-4-amine], the concentration for half-maximal inhibition (IC50) lay within 10 to 100 nM. `Cc1ccc(-c2nnc(N[C@@H]3CCCN(C)C3)n3cccc23)c(OC(F)F)c1` [Compound 33, 1-[2-(difluoromethoxy)-4-methylphenyl]-N-[(3R)-1-methylpiperidin-3-yl]pyrrolo[1,2-d][1,2,4]triazin-4-amine]: the IC50 lay in the range of 1 to 10 nM. With `COc1ccc(-c2nnc(NC[C@@H](C)O)n3cccc23)c(OC(F)(F)F)c1` [Compound 70, (2R)-1-({1-[4-methoxy-2-(trifluoromethoxy)phenyl]pyrrolo[1,2-d][1,2,4]triazin-4-yl}amino)propan-2-ol] the figure was 1 to 10 nM; with `OC[C@H]1C[C@@H](Nc2nnc(-c3ccc(C(F)(F)F)cc3OC(F)(F)F)c3cccn23)C1` [Compound 141, [(1s,3s)-3-({1-[2-(trifluoromethoxy)-4-(trifluoromethyl)phenyl]pyrrolo[1,2-d][1,2,4]triazin-4-yl}amino)cyclobutyl]methanol], 1 to 10 nM; with `COc1ccc(-c2nnc(N[C@@H]3CCCN(C)C3)n3cccc23)c(CC(F)(F)F)c1` [Compound 145, 1-[4-methoxy-2-(2,2,2-trifluoroethyl)phenyl]-N-[(3R)-1-methylpiperidin-3-yl]pyrrolo[1,2-d][1,2,4]triazin-4-amine], less than 1 nM. With `O[C@@H]1CCCC[C@H]1Nc1nnc(-c2ccc(OC(F)F)cc2OC(F)(F)F)c2cccn12` [Compound 168, (1R,2R)-2-({1-[4-(difluoromethoxy)-2-(trifluoromethoxy)phenyl]pyrrolo[1,2-d][1,2,4]triazin-4-yl}amino)cyclohexan-1-ol] the figure was 1 to 10 nM; with `COc1ccc(-c2nnc(N[C@@H]3CCCN(CCO)C3)n3cncc23)c(OC(F)F)c1` [Compound 225, 2-[(3R)-3-({1-[2-(difluoromethoxy)-4-methoxyphenyl]imidazo[1,5-d][1,2,4]triazin-4-yl}amino)piperidin-1-yl]ethan-1-ol], 1 to 10 nM. Regarding `O[C@H]1CC[C@@H](Nc2nnc(-c3ccc(C(F)(F)F)cc3C(F)(F)F)c3cncn23)CC1` [Compound 275, (1s,4s)-4-({1-[2,4-bis(trifluoromethyl)phenyl]imidazo[1,5-d][1,2,4]triazin-4-yl}amino)cyclohexan-1-ol], the concentration for half-maximal inhibition (IC50) was in the range of 10 to 100 nM. For `CN1CCC[C@@H](Nc2nnc(-c3ccc(OC(F)F)cc3OC(F)(F)F)c3cncn23)C1` [Compound 295, 1-[4-(difluoromethoxy)-2-(trifluoromethoxy)phenyl]-N-[(3R)-1-methylpiperidin-3-yl]imidazo[1,5-d][1,2,4]triazin-4-amine], the 50% inhibitory concentration (IC50) was less than 1 nM.

For the molecule `COc1ccc(-c2nnc(NCc3ncco3)n3cccc23)c(OC(F)(F)F)c1` [Compound 91, 1-[4-methoxy-2-(trifluoromethoxy)phenyl]-N-[(1,3-oxazol-2-yl)methyl]pyrrolo[1,2-d][1,2,4]triazin-4-amine], the 50% inhibitory concentration (IC50) fell in the range of 10 to 100 nM. Regarding `COc1ccc(-c2nnc(N[C@H]3C[C@@](C)(O)C3)n3cncc23)c(OC(F)(F)F)c1` [Compound 219, (1s,3s)-3-({1-[4-methoxy-2-(trifluoromethoxy)phenyl]imidazo[1,5-d][1,2,4]triazin-4-yl}amino)-1-methylcyclobutan-1-ol], the concentration for half-maximal inhibition (IC50) was in the range of 1 to 10 nM. With `O[C@H]1CCCC[C@H]1Nc1nnc(-c2ccc(C(F)(F)F)cc2CC(F)(F)F)c2cncn12` [Compound 401, (1S,2R)-2-({1-[2-(2,2,2-trifluoroethyl)-4-(trifluoromethyl)phenyl]imidazo[1,5-d][1,2,4]triazin-4-yl}amino)cyclohexan-1-ol] the figure was 10 to 100 nM. With `COc1ccc(-c2nnc(NC(C)c3cccc(O)c3)n3cncc23)c(C(F)(F)F)c1` (stereo not drawn) [Compound 251, 3-[1-({1-[4-methoxy-2-(trifluoromethyl)phenyl]imidazo[1,5-d][1,2,4]triazin-4-yl}amino)ethyl]phenol] the figure was less than 1 nM; with `COc1ccc(-c2nnc(N[C@H]3C[C@@](C)(O)C3)n3cncc23)c(OC(F)F)c1` [Compound 226, (1s,3s)-3-({1-[2-(difluoromethoxy)-4-methoxyphenyl]imidazo[1,5-d][1,2,4]triazin-4-yl}amino)-1-methylcyclobutan-1-ol], 10 to 100 nM. In the case of `O=C1NCCC1Nc1nnc(-c2ccc(Cl)cc2OC(F)(F)F)c2cncn12` (stereo not drawn) [Compound 287, 3-({1-[4-chloro-2-(trifluoromethoxy)phenyl]imidazo[1,5-d][1,2,4]triazin-4-yl}amino)pyrrolidin-2-one], the IC50 is 1 to 10 nM.

These data come from US20250179078A1, “INHIBITORS OF NLRP3” (PTC THERAPEUTICS, INC., priority 2022, published 2025).
